In patent US5519001A, “CETP inhibitor polypeptide antibodies against the synthetic polypeptide and prophylactic and therapeutic anti-atherosclerosis treatments” (Southwest Foundation for Biomedical Research, priority 1995, dated 1996):
Ends that are not written are not given here.

Tests used:
CETP = test: Cholesteryl ester transfer assay (3H CE-HDL to VLDL+LDL, baboon LPDS as CETP source); type: biochemical; settings: for inhibitory activity of CETP: in vitro, result in words; for effect on transfer of CE from HDL to VLDL+LDL: electroeluted from gels, increasing concentrations, lipoproteins from low HDL1 baboons
Procedure: The CE transfer activity of a sample was assayed by a modification of a procedure described previously (Kushwaha et al, (1986), supra). Briefly, ^3 H CE-labeled HDL3 containing 50-100 μg of CE from low HDL1 baboons was incubated with VLDL+LDL containing 100-300 μg CE in the presence of LPDS. The acceptor lipoproteins and the LPDS were obtained from low HDL1 baboon plasma (chow diet). In some cases, the HDL3 was obtained from high HDL1 baboons maintained on the HCHF diet. The incubations were carried out at 4° C. (control) and 37° C. for 4-6 hrs, and terminated by placing the samples on ice. The assay mixture was then ultracentrifuged to separate VLDL+LDL having a d>1.040 g/ml, and the radioactivity in the lipoproteins was counted as described previously (Kushwaha et al, (1986), supra). Any difference observed in the radioactivity transferred from HDL to VLDL+LDL at 4° C. and 37° C. was attributed to CETP activity in the LPDS. Time course experiments gave a linear response up to 7 hrs. Similarly, the CETP activity was linear with increasing LPDS, up to 140 μl LPDS, which was derived from an equivalent volume of plasma. The polypeptide of the invention, and synthetic fragments thereof were added to the reaction mixture to determine their CETP inhibitory activities, along with an appropriate synthetic control peptide. The percent difference between the control experiment and the assay with inhibitor peptide was expressed as the inhibitor activity. A CE transfer assay as described in Example 4 above was conducted using HDL1 baboon plasma, ^3 H HDL, and the VLDL+LDL carriers, in the presence of CETP enzyme to mediate the exchange. The reactions were conducted at 37° C. and at 4° C. (control) in duplicate.

Human CETP = target: T1, Human CETP (Homo sapiens, UniProt P11597); test: Inhibition of human CETP by synthetic CETP inhibitor peptide (human LPDS); type: biochemical; settings: 100 μg peptide, HDL 10 μg, VLDL+LDL 50 μg, CETP 200 μl, 37 °C
T1 construct: To isolate human CETP, blood (5-10 ml) from human subjects was obtained in tubes containing EDTA; from tissue; host or cells: human plasma of individual donors, supernatant after heparin/MnCl2 and dextran sulfate precipitation of lipoproteins
T1 sequence (P11597 18-493): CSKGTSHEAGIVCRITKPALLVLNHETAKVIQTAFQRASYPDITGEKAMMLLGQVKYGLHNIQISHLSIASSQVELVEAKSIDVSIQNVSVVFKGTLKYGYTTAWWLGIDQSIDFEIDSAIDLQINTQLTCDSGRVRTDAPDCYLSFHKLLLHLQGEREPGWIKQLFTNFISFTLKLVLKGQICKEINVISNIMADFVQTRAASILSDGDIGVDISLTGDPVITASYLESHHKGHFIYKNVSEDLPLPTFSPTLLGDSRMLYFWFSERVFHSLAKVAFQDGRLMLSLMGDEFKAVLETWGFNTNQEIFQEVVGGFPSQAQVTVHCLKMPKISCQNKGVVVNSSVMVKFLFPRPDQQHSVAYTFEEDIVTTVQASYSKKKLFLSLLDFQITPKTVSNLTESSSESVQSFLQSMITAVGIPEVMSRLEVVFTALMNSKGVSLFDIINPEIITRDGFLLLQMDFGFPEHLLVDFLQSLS

[1] = target: baboon plasma cholesteryl ester transfer protein (CETP), supplied as lipoprotein-deficient serum (LPDS, d>1.21 g/ml) from low HDL1 baboon plasma (baboon (papio sp.))

## SEQ. ID. NO:1: synthetic 36 amino acid peptide, sequence of the 4 kD baboon CETP inhibitor, common with N-terminal fragment of apo C-I (DVSSALDKLKEFGNTLEDKAWEVINRIKQSEFPAKT)
CETP; 50 μg peptide, lipoproteins of low HDL1 baboons
  inhibition of CE transfer from HDL to VLDL and LDL: significantly (p<0.01) inhibited
CETP
  inhibitory activity of CETP: inhibitory of CETP

## amino acids 16 to 36: C-terminal fragment of SEQ. ID. NO:1, amino acids 16 to 36 (21 amino acids) (LEDKAWEVINRIKQSEFPAKT)
CETP; 50 μg peptide
  inhibitory activity of CETP at 50 μg: limited inhibitory activity

## 4 kD polypeptide: endogenous CETP inhibitor polypeptide of molecular weight 4,000 electroeluted from lipoproteins of high HDL1 baboons (DVSSALDKLKEFGNTLEDKAWEVINRIKQSEFPAKT)
CETP
  effect on transfer of CE from HDL to VLDL+LDL: significantly inhibited CETP activity

## amino acids 1 to 15: N-terminal fragment of SEQ. ID. NO:1, amino acids 1 to 15 (DVSSALDKLKEFGNT)
CETP
  inhibitory activity of CETP: active as inhibitors of CETP

## amino acids 1 to 20: N-terminal fragment of SEQ. ID. NO:1, amino acids 1 to 20 (DVSSALDKLKEFGNTLEDKA)
CETP
  inhibitory activity of CETP: active as inhibitors of CETP

## Albumin [reference compound]
CETP
  effect on transfer of CE from HDL to VLDL+LDL: no effect

## amino acids 1 to 10: N-terminal fragment of SEQ. ID. NO:1, amino acids 1 to 10 (DVSSALDKLK)
CETP
  inhibitory activity of CETP: active as inhibitors of CETP

## APDVSSALDKLKEFGNTLEDKAWEVINRIKQSEFPAKT [SEQ. ID. NO:2]
Human CETP; human CETP source AB (S.N. 6)
  Inhibition (%): 60%
Human CETP; human CETP source EJ (S.N. 3)
  Inhibition (%): 85%
Human CETP; human CETP source EW (S.N. 11)
  Inhibition (%): 71%
Human CETP; human CETP source GL (S.N. 7)
  Inhibition (%): 85%
Human CETP; human CETP source KC (S.N. 8)
  Inhibition (%): 83%
Human CETP; human CETP source KR (S.N. 5)
  Inhibition (%): 82%
Human CETP; human CETP source ML (S.N. 12)
  Inhibition (%): 77%
Human CETP; human CETP source RK (S.N. 2)
  Inhibition (%): 72%
Human CETP; human CETP source SH (S.N. 1)
  Inhibition (%): 60%
Human CETP; human CETP source TH (S.N. 9)
  Inhibition (%): 86%
Human CETP; human CETP source UM (S.N. 10)
  Inhibition (%): 90%

## amino acids 28 to 36: C-terminal fragment of SEQ. ID. NO:1, amino acids 28 to 36 (9 amino acids) (KQSEFPAKT)
CETP; 50 μg peptide
  inhibitory activity of CETP at 50 μg: limited inhibitory activity
CETP; 200 μg peptide, compared with the 36 amino acid peptide
  activity inhibitory of CETP at 200 μg: approximately the same as that of the 36 amino acid peptide

## amino acids 15 to 30: intermediate fragment of SEQ. ID. NO:1, amino acids 15 to 30 (TLEDKAWEVINRIKQS)
CETP
  inhibitory activity of CETP: active as inhibitors of CETP

B1: synthetic CETP inhibitor peptide, baboon apo C-I terminal peptide with 38 amino acids (SEQ ID NO 2) (peptide)
peptide: APDVSSALDKLKEFGNTLEDKAWEVINRIKQSEFPAKT
[1]
  Inhibition (%) of CETP-mediated cholesteryl ester transfer: 52%

B2: synthetic CETP inhibitor peptide, human apo C-I terminal peptide with 38 amino acids (SEQ ID NO 3) (peptide)
peptide: TPDVSSALDKLKEFGNTLEDKARELISRIKQSELSAKM
[1]
  Inhibition (%) of CETP-mediated cholesteryl ester transfer: 60%
